From ChEMBL document CHEMBL5042514, “Picolylamine-functionalized benz[e]indole squaraine dyes: Synthetic approach, characterization and in vitro efficacy as potential anticancer phototherapeutic agents” (Eur J Med Chem, 2022)
Calls of active or inactive are those of the source. The calls are words filed in the database; no cut-off is given here.

What was measured:
[1] = Phototoxicity against human PC-3 cells assessed as reduction in cell viability preincubated for 24 hrs followed by 7 mins of LED light irradiation by MTT assay; assay type: toxicity, cell-based; conditions: PC-3, light or radiation study
[2] = Dark toxicity against human Caco-2 cells assessed as reduction in cell viability incubated for 24 hrs by MTT assay; assay type: cell-based
[3] = Selectivity ratio of IC50 for phototoxicity against human NHDF cells upon LED light irradiation to IC50 for phototoxicity against human HeLa cells upon LED light irradiation; assay type: toxicity, cell-based; conditions: NHDF cells versus HeLa cells, read-out: Ratio IC50
HeLa [4] = test: Induction of cell cycle arrest in human HeLa cells assessed as accumulation of hypodiploid cells in sub-G1 phase at 0.24 to 1 uM measured after 24 hrs in the absence of light by PI staining based flow cytometry analysis; assay type: functional; conditions: dose 0.24-1 µM
[5] = Phototoxicity against human HeLa cells assessed as reduction in cell viability preincubated for 24 hrs followed by 7 mins of LED light irradiation by MTT assay; assay type: toxicity, cell-based; conditions: light or radiation study
[6] = Dark toxicity against human MCF7 cells assessed as reduction in cell viability incubated for 24 hrs by MTT assay; assay type: cell-based
[7] = Phototoxicity ratio of IC50 for cytotoxicity against human Caco-2 cells assessed as reduction in cell viability in dark to IC50 for phototoxicity against human Caco-2 cells upon LED light irradiation; assay type: toxicity, cell-based
[8] = Phototoxicity ratio of IC50 for cytotoxicity against human MCF7 cells assessed as reduction in cell viability in dark to IC50 for phototoxicity against human MCF7 cells upon LED light irradiation; assay type: toxicity, cell-based
[9] = Dark toxicity against human PC-3 cells assessed as reduction in cell viability incubated for 24 hrs by MTT assay; assay type: cell-based
[10] = Phototoxicity against human MCF7 cells assessed as reduction in cell viability preincubated for 24 hrs followed by 7 mins of LED light irradiation by MTT assay; assay type: toxicity, cell-based; conditions: MCF7, light or radiation study
[11] = Phototoxicity against human NHDF cells assessed as reduction in cell viability preincubated for 24 hrs followed by 7 mins of LED light irradiation by MTT assay; assay type: toxicity, cell-based
[12] = Selectivity ratio of IC50 for phototoxicity against human NHDF cells upon LED light irradiation to IC50 for phototoxicity against human MCF7 cells upon LED light irradiation; assay type: toxicity, cell-based; conditions: NHDF cells versus MCF7 cells, read-out: Ratio IC50
Albumin = Albumin (Homo sapiens, UniProt P02768); test: Binding affinity to human serum albumin assessed as binding constant by fluorescence based assay
Albumin, sequence (P02768 whole entry): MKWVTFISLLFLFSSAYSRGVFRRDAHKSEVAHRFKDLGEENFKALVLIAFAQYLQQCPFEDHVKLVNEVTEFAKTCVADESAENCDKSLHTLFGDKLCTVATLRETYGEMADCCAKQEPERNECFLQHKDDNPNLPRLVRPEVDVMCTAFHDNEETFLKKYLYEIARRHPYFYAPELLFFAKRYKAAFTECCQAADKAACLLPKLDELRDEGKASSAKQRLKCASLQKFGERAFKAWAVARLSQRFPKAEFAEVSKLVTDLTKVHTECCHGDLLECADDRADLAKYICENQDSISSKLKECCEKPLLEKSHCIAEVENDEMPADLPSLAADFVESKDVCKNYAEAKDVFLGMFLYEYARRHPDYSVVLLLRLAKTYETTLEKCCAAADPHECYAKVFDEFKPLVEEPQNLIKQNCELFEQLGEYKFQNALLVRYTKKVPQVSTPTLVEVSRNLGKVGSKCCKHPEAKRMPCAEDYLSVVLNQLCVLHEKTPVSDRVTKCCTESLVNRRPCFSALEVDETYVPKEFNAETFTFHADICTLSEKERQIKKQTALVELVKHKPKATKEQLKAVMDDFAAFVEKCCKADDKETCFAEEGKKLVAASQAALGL

[13] = Phototoxicity ratio of IC50 for cytotoxicity against human HeLa cells assessed as reduction in cell viability in dark to IC50 for phototoxicity against human HeLa cells upon LED light irradiation; assay type: toxicity, cell-based
[14] = Phototoxicity ratio of IC50 for cytotoxicity against human NHDF cells assessed as reduction in cell viability in dark to IC50 for phototoxicity against human NHDF cells upon LED light irradiation; assay type: toxicity, cell-based; conditions: read-out: Ratio IC50
[15] = Selectivity ratio of IC50 for phototoxicity against human NHDF cells upon LED light irradiation to IC50 for phototoxicity against human PC-3 cells upon LED light irradiation; assay type: toxicity, cell-based; conditions: NHDF cells versus PC-3 cells, read-out: Ratio IC50
[16] = Dark toxicity against human HeLa cells assessed as reduction in cell viability incubated for 24 hrs by MTT assay; assay type: cell-based
[17] = Dark toxicity against human NHDF cells assessed as reduction in cell viability incubated for 24 hrs by MTT assay; assay type: cell-based
[18] = Phototoxicity ratio of IC50 for cytotoxicity against human PC-3 cells assessed as reduction in cell viability in dark to IC50 for phototoxicity against human PC-3 cells upon LED light irradiation; assay type: toxicity, cell-based
[19] = Selectivity ratio of IC50 for phototoxicity against human NHDF cells upon LED light irradiation to IC50 for phototoxicity against human Caco-2 cells upon LED light irradiation; assay type: toxicity, cell-based; conditions: NHDF cells versus Caco-2 cells, read-out: Ratio IC50
[20] = Phototoxicity against human Caco-2 cells assessed as reduction in cell viability preincubated for 24 hrs followed by 7 mins of LED light irradiation by MTT assay; assay type: toxicity, cell-based; conditions: Caco-2, light or radiation study
HeLa [21] = test: Induction of morphological change in human HeLa cells assessed as cell shrinkage at 0.25 uM preincubated for 24 hrs followed by 7 mins of LED light irradiation and measured upto 48 hrs by microscopic analysis; assay type: functional, cell-based; conditions: time min <=4327
HeLa [22] = test: Induction of morphological change in human HeLa cells assessed as intracellular space dilation at 1 uM preincubated for 24 hrs followed by 7 mins of LED light irradiation and measured upto 48 hrs by microscopic analysis; assay type: functional, cell-based; conditions: time min <=4327
HeLa [23] = test: Induction of cell cycle arrest in human HeLa cells assessed as accumulation in G0/G1 phase at 0.25 uM with red light radiation for 7 mins by PI staining based flow cytometry analysis (reference value: 63.18%); assay type: functional
HeLa [24] = test: Induction of cell cycle arrest in human HeLa cells assessed as accumulation in S phase at 1 uM by PI staining based flow cytometry analysis (reference value: 32.14 %); assay type: functional
HeLa [25] = test: Induction of cell cycle arrest in human HeLa cells assessed as accumulation in S phase at 0.25 uM with red light radiation for 7 mins by PI staining based flow cytometry analysis (reference value: 32.09 %); assay type: functional
HeLa [26] = test: Induction of cell cycle arrest in human HeLa cells assessed as accumulation in S phase at 0.25 uM by PI staining based flow cytometry analysis (reference value: 32.14 %); assay type: functional
HeLa [27] = test: Induction of cell cycle arrest in human HeLa cells assessed as accumulation in G0/G1 phase at 0.25 uM by PI staining based flow cytometry analysis (reference value: 67.03 %); assay type: functional
HeLa [28] = test: Induction of apoptosis in human HeLa cells assessed as increase in DNA cleavage at 1 uM preincubated for 24 hrs followed by 7 mins LED light irradiation and measured after 24 hrs by PI staining based flow cytometry analysis; assay type: functional; conditions: time 2887 min, 48.12 h
HeLa [29] = test: Induction of cell cycle arrest in human HeLa cells assessed as accumulation of hypodiploid cells in sub-G1 phase at 0.25 to 1 uM measured after 24 hrs in the absence of light by PI staining based flow cytometry analysis; assay type: functional; conditions: dose 0.25-1 µM
HeLa [30] = test: Induction of cell cycle arrest in human HeLa cells assessed as accumulation in G0/G1 phase at 1 uM by PI staining based flow cytometry analysis (reference value: 67.03 %); assay type: functional
HeLa [31] = test: Induction of cell cycle arrest in human HeLa cells assessed as accumulation in G2/M phase at 1 uM by PI staining based flow cytometry analysis (reference value: 4.79 %); assay type: functional
HeLa [32] = test: Induction of cell cycle arrest in human HeLa cells assessed as accumulation in G2/M phase at 0.25 uM by PI staining based flow cytometry analysis (reference value: 4.79 %); assay type: functional
HeLa [33] = test: Induction of apoptosis in human HeLa cells at 0.25 uM preincubated for 24 hrs followed by 7 mins LED light irradiation and measured after 24 hrs by PI staining based flow cytometry analysis; assay type: functional; conditions: time 2887 min, 48.12 h
HeLa [34] = test: Induction of morphological change in human HeLa cells assessed as reduction in adhesion at 0.25 uM preincubated for 24 hrs followed by 7 mins of LED light irradiation and measured upto 48 hrs by microscopic analysis; assay type: functional, cell-based; conditions: time min <=4327
HeLa [35] = test: Induction of morphological change in human HeLa cells assessed as rounded cell morphology at 0.25 uM preincubated for 24 hrs followed by 7 mins of LED light irradiation and measured upto 48 hrs by microscopic analysis; assay type: functional, cell-based; conditions: time min <=4327
[36] = Drug localization in lysosome of human HeLa cells at 1 uM incubated for 24 hrs by Green Fluorescent Protein based confocal laser scanning microscopy analysis; assay type: ADME, subcellular
HeLa [37] = test: Induction of cell cycle arrest in human HeLa cells assessed as accumulation in G2/M phase at 0.25 uM with red light radiation for 7 mins by PI staining based flow cytometry analysis (reference value: 4.73 %); assay type: functional
[38] = Drug localization in mitochondria of human HeLa cells at 1 uM incubated for 24 hrs by Rhodamine 123 based confocal laser scanning microscopy analysis; assay type: ADME
HeLa [39] = test: Induction of morphological change in human HeLa cells assessed as plasma membrane rupture at 1 uM preincubated for 24 hrs followed by 7 mins of LED light irradiation and measured upto 48 hrs by microscopic analysis; assay type: functional; conditions: time min <=4327

Compound `CCCCCCN1/C(=C/C2=C(NCc3ccccn3)C(=C/C3=[N+](CCCCCC)c4ccc5ccccc5c4C3(C)C)/C2=O)C(C)(C)c2c1ccc1ccccc21.[I-]` has an IC50 [1] of 1530 nM, an IC50 at 24 h [2] of over 10000 nM and a selectivity ratio [3] of 0.49. It also gave an Activity (HeLa [4]) of 1%, an IC50 [5] of 2580 nM and an IC50 at 24 h [6] of 3100 nM. For the same compound, the “Ratio IC50” value [7] was over 2.1, the “Ratio IC50” value [8] was 1.4 and the IC50 at 24 h [9] was 6690 nM. The IC50 [10] was 2290 nM, the IC50 at 24 h [11] was 1280 nM and the selectivity ratio [12] was 0.56. For the same compound, the Kb (Albumin) was 1.64 10^5/M, the “Ratio IC50” value [13] was 1.9 and the selectivity ratio [14] was 3.4. The selectivity ratio [15] was 0.84, the IC50 at 24 h [16] was 4780 nM and the IC50 at 24 h [17] was 4300 nM. For the same compound, the “Ratio IC50” value [18] was 1.3, the selectivity ratio [19] was 0.26 and the IC50 [20] was 4820 nM.

`CCCCCCN1/C(=C/C2=C(N(Cc3ccccn3)Cc3ccccn3)C(=C/C3=[N+](CCCCCC)c4ccc5ccccc5c4C3(C)C)/C2=O)C(C)(C)c2c1ccc1ccccc21.[I-]` gave an IC50 [1] of 967 nM, an IC50 at 24 h [2] of 2490 nM and a selectivity ratio [3] of 0.59. For the same compound, the IC50 [5] was 1170 nM, the IC50 at 24 h [6] was 1520 nM and the “Ratio IC50” value [7] was 1.2. The “Ratio IC50” value [8] was 1.3, the IC50 at 24 h [9] was 1110 nM and the IC50 [10] was 1190 nM. The IC50 at 24 h [11] was 695 nM, the selectivity ratio [12] was 0.59 and the Kb (Albumin) was 7.68 10^5/M. For the same compound, the “Ratio IC50” value [13] was 1.5, the selectivity ratio [14] was 1.4 and the selectivity ratio [15] was 0.72. For the same compound, the IC50 at 24 h [16] was 1740 nM, the IC50 at 24 h [17] was 1010 nM and the “Ratio IC50” value [18] was 1.1. The selectivity ratio [19] was 0.33 and the IC50 [20] was 2130 nM.

`CCN1/C(=C/C2=C(N(Cc3ccccn3)Cc3ccccn3)C(=C/C3=[N+](CC)c4ccc5ccccc5c4C3(C)C)/C2=O)C(C)(C)c2c1ccc1ccccc21.[I-]` showed an IC50 [1] of 148 nM, an IC50 at 24 h [2] of 328 nM and a selectivity ratio [3] of 1.63. For the same compound, the IC50 [5] was 113 nM, the IC50 at 24 h [6] was 534 nM and the “Ratio IC50” value [7] was 3.6. The “Ratio IC50” value [8] was 3.6, the IC50 at 24 h [9] was 393 nM and the IC50 [10] was 150 nM. For the same compound, the IC50 at 24 h [11] was 184 nM, the selectivity ratio [12] was 1.23 and the Kb (Albumin) was 5.92 10^5/M. For the same compound, the “Ratio IC50” value [13] was 4, the selectivity ratio [14] was 2.6 and the IC50 at 24 h [16] was 449 nM. For the same compound, the IC50 at 24 h [17] was 484 nM, the “Ratio IC50” value [18] was 2.7 and the selectivity ratio [19] was 2. It also gave an IC50 [20] of 92 nM.

In the case of `CCN1/C(=C/C2=C([O-])C(=C/C3=[N+](CC)c4ccc5ccccc5c4C3(C)C)/C2=O)C(C)(C)c2c1ccc1ccccc21`, the IC50 [1] is reported as 190 nM, the IC50 at 24 h [2] is reported as over 10000 nM and the Activity (HeLa [21]) is reported as “Active”. For the same compound, the Activity (HeLa [22]) was “Active”, the Activity (HeLa [23]) was 58.79% and the Activity (HeLa [24]) was 25.92%. For the same compound, the selectivity ratio [3] was 0.91, the Activity (HeLa [25]) was 31.5% and the IC50 [5] was 245 nM. The Activity (HeLa [26]) was 25.84%, the IC50 at 24 h [6] was over 10000 nM and the “Ratio IC50” value [7] was over 30.1. The “Ratio IC50” value [8] was over 43.1, the Activity (HeLa [27]) was 68.96% and the Activity (HeLa [28]) was 98%. It also gave an IC50 at 24 h [9] of over 10000 nM, an Activity (HeLa [29]) of 1% and an Activity (HeLa [30]) of 70.47%. For the same compound, the IC50 [10] was 232 nM, the IC50 at 24 h [11] was 222 nM and the Activity (HeLa [31]) was 3.61%. For the same compound, the selectivity ratio [12] was 0.96, the Activity (HeLa [32]) was 5.19% and the Kb (Albumin) was 2.01 10^5/M. For the same compound, the “Ratio IC50” value [13] was over 40.8, the Activity (HeLa [33]) was 17% and the Activity (HeLa [34]) was “Active”. The Activity (HeLa [35]) was “Active”, the selectivity ratio [14] was over 45 and the selectivity ratio [15] was 1.17. For the same compound, the Drug uptake [36] was “Not Active”, the Activity (HeLa [37]) was 9.71% and the IC50 at 24 h [16] was over 10000 nM. The IC50 at 24 h [17] was over 10000 nM, the Drug uptake [38] was “Active” and the “Ratio IC50” value [18] was over 52.6. For the same compound, the selectivity ratio [19] was 0.67, the IC50 [20] was 332 nM and the Activity (HeLa [39]) was “Active”.
